Data on nine compounds can be found in US20230330045A1 (priority 2020, published 2023).

Where a name gives a salt, the structure may show the parent alone. Read-outs that look alike come from different tables or passages of the source.

The assay concerns the target eel acetylcholinesterase (AChE) (Electrophorus electricus, UniProt O42275). Nature of the assay: Eel AChE fluorescence assay (AMPLEX Red kit). The format is biochemical. The settings on record: for inhibition of AChE activity (in words): eel AChE, 20 μM; for assay interference test versus enzyme-free H2O2 reaction: parallel dose-response with 5 μM H2O2; for Hill slope, eel AChE dose-response: sixteen-point serial dilution, four-parameter fit. On the procedure: Enzymatic reactions consisted of 50 μM acetylcholine, 200 μM AIVIPLEX™ Red reagent, 1 U/mL horseradish peroxidase, 0.1 U/mL choline oxidase and 0.096 U/mL acetylcholinesterase, with 30 1% DMSO. […] Control reactions lacking acetylcholinesterase but containing 5 μM H2O2 in presence of compounds were analyzed at the same wavelength to exclude compounds that display assay interference. Dose-response curves were performed in duplicate.

Where [1] appears, read: eel AChE activity, at 20 μM, read-out: Percentage inhibition.
Where [2] appears, read: read-out: inhibition of enzyme activity compared to DMSO control (screen).

eel acetylcholinesterase (AChE), sequence (O42275 24-633): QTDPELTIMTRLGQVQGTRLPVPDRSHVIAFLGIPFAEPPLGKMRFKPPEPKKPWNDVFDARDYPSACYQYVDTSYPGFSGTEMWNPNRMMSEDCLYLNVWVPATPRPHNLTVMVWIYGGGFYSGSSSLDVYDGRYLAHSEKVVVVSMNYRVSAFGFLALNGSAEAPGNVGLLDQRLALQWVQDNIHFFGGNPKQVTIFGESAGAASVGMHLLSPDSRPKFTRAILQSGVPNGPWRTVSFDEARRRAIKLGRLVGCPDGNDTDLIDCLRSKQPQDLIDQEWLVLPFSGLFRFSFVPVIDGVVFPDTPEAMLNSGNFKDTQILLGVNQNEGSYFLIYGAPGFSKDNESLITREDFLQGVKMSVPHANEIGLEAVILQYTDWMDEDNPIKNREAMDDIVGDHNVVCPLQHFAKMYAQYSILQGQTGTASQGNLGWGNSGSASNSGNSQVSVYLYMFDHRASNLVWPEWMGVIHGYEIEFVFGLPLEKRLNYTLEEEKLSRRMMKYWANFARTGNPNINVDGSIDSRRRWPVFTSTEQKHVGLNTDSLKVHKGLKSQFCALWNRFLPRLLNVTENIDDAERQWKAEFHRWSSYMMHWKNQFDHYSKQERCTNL

One may read the inhibition as the change of the read-out against control, counted positive when it falls. For the compound `O=C1c2cc(O)ccc2-c2ccc(O)cc21` [2,7-dihydroxy-9H-fluoren-9-one], the “inhibition of AChE activity (in words)” value is “neither fluorenone, nor the close derivative 2,7-dihydroxy-9H-fluoren-9-one inhibit AChE activity”. In addition, the inhibition at 20 µM under setting [1] is 30%.
As for `Nc1c2ccccc2nc2ccccc12` [aminacrine], the inhibition at 20 µM under setting [1] was determined as 99.2%.
On to `Cc1cc(N)c2ccccc2[n+]1CCCCCCCCCC[n+]1c(C)cc(N)c2ccccc21` [dequalinium chloride], for which the “assay interference test versus enzyme-free H2O2 reaction” value was “likely represent true inhibition of the enzyme” and the “Hill slope, eel AChE dose-response” value was found to be 0.87. Moreover, under setting [2], the inhibition at 20 µM is not below 50%.
In the case of `O=C1c2ccccc2-c2ccccc21` [fluorenone], the inhibition at 20 µM under setting [1] stood at 3%.
Take `CCN(CC)CCNc1ccc(C)c2sc3ccccc3c(=O)c12` [lucanthone]: the “inhibition of AChE activity (in words)” value is recorded as “did not show appreciable activity”. In addition, under setting [1], the inhibition at 20 µM was 11%.
On to `COc1ccc2nc3cc(Cl)ccc3c(Nc3cc(CN4CCCC4)c(O)c(CN4CCCC4)c3)c2n1` [pyronaridine], for which the inhibition at 20 µM by setting is: under setting [1], 53.6%; under setting [2], more than 50%.
For `CCN(CC)CCC[C@H](C)Nc1c2ccc(Cl)cc2nc2ccc(OC)cc12` [quinacrine hydrochloride] the same measures were 61.8% and more than 50%.
Regarding `CO[C@H]1/C=C/O[C@@]2(C)Oc3c(C)c(O)c4c(O)c(c5c(nc6cc(C)ccn65)c4c3C2=O)NC(=O)/C(C)=C\C=C\[C@H](C)[C@H](O)[C@@H](C)[C@@H](O)[C@@H](C)[C@H](OC(C)=O)[C@@H]1C` [rifaximin], the inhibition at 20 µM under setting [2] was not below 50%.
Regarding agelasine, the “assay interference test versus enzyme-free H2O2 reaction” value is on record as “likely represent true inhibition of the enzyme” and the “Hill slope, eel AChE dose-response” value was 0.79.
